Laboratory results taken from US20110124574A1, “RESTORATION OF ESTROGEN RECEPTOR-(ALPHA) ACTIVITY” (priority 2008, published 2011).
Where no end group is shown, it is not given here. The star is where a group is joined. For = O=C*

B1: recombinant Wnt-5a: recombinant Wnt-5a protein (R&D Systems) (protein, UniProt P41221 62-380, looked up)
Protein Wnt-5a: IIGAQPLCSQLAGLSQGQKKLCHLYQDHMQYIGEGAKTGIKECQYQFRHRRWNCSTVDNTSVFGRVMQIGSRETAFTYAVSAAGVVNAMSRACREGELSTCGCSRAARPKDLPRDWLWGGCGDNIDYGYRFAKEFVDARERERIHAKGSYESARILMNLHNNEAGRRTVYNLADVACKCHGVSGSCSLKTCWLQLADFRKVGDALKEKYDSAAAMRLNSRGKLVQVNSRFNSPTTQDLVYIDPSPDYCVRNESTGSLGTQGRLCNKTSEGMDGCELMCCGRGYDQFKTVQTERCHCKFHWCCYVKCKKCTEIVDQFVCK

Experiments:
Type in all cases: cell-based, human
ERα [1] = experiment: RT-PCR of estrogen responsive genes CATD and EBAG9 after estradiol and tamoxifen; details: MDA-MB-231, hormone free media, pretreatment, estradiol plus tamoxifen, at 48 hours
Method: MDA-MB-231 cells were grown in 6 well plates and stimulated with recombinant Wnt-5a (rW5a) or the Wnt-5a derived Foxy-5 peptide (F5), for 24 h or 48 h. The ERα ligand estradiol was added for the final 22 h, and tamoxifen for the final 20 h to a subset of samples. RNA was extracted at the end time point, cDNA synthesized and subjected to RT-PCR for Cathepsin D (CATD), ER-binding fragment associated antigen 9 (EBAG9) and the housekeeping gene, β-actin.
cDNA was synthesized from 1 μg of total RNA using M-MuLV reverse transcriptase (Fermentas) in a MJ Mini Personal Thermal Cycler (Bio-Rad (Hercules Calif.)). All RT-PCR was performed in a designated clean PCR hood. RT-PCR was performed using a master mix containing with 5 μl of 10× buffer, 5 μl of 25 mM MgCl2, 1 μl 10 mM dNTP, 1 μl forward primer, 1 μl reverse primer and 0.2 μl of Taq polymerase (Fermentas (Ontario, Canada)) per sample. For detection of the progesterone receptor (PR), semi nested RT-PCR was performed to increase sensitivity, whereby 10 μl of the initial PCR reaction product was added to a second PCR reaction with a second internal reverse primer. Both A and β isoforms are amplified with these primers.

Phospho-ERα (Ser 118) = Phospho-ERα (Ser 118) Western blot in MDA-MB-231 cells; details: stimulated lysates
Method: MDA-MB-231 cells were grown in 6 well plates and stimulated with recombinant Wnt-5a protein (rW5a) or the Wnt-5a derived Foxy-5 peptide (F5), for 24 or 48 h. A: Following treatment, cells were lysed and subjected to SDS-PAGE, transferred to nitrocellulose membranes and blotted for phospho-ERα expression. The positive control (Pos) represents cell lysates from T47D cells expressing ERα B and C: RNA was also extracted from stimulated cells and samples tested for progesterone receptor (PR) (B) and pS2 (C) mRNA using semi-nested RT-PCR. The positive control (Pos) is RNA extracted from T47D cells that express ERα. The negative control represents a water control. PCR results are representative of three separate experiments.
Cells were lysed in Triton lysis buffer (50 mM Tris (pH7.5), 1% Triton x-100, 140 mM NaCl, 0.5 mM EDTA, 0.5 MgCl2, 10 mM NaF) with the addition of fresh leupeptin (1 μg/ml), Pefabloc (2 mM), aprotinin (20 μg/ml) and Na3VO4 (4 mM). Lysates were incubated on ice for 15 minutes, then pre-cleared by centrifugation for 10 minutes at 8000 g. Cell lysates were separated according to size on 8-12% SDS-polyacrylamide gels and subsequently electrically transferred to PVDF or nitrocellulose membranes. […] Scanning and densitometry was performed using a Bio-Rad (Hercules Calif.) GS-800 densitometer with Quantity One software. […]

ERα [2] = experiment: ERα mRNA by RT-PCR in stimulated MDA-MB-231 cells; details: time points 6, 12, 18 and 24 hours
Method: Breast cancer cells were grown in 6 well plates and stimulated with recombinant Wnt-5a protein (rW5a) or the Wnt-5a derived Foxy-5 peptide (F5), for 6, 12, 18 or 24 h. RNA was extracted at the end time point, cDNA synthesized and subjected to RT-PCR for ERα and the housekeeping gene, β-actin. A: MDA-MB-231 breast cancer cells, B: MDA-MB-468 breast cancer cells. The positive control (Pos) is RNA extracted from T47D cells which express ERα. The negative control represents a water control.
Stimulation of cells was performed with recombinant Wnt-5a (0.6 μg/ml) and recombinant Wnt-3a (0.1 μg/ml and in a control experiment, 0.6 μg/ml) (R&D Systems Abington, UK) for times as indicated. The Wnt-5a derived formylated hexapeptide, Foxy-5 (formyl-MDGCEL) (SEQ. ID. NO. 1) designed in the laboratory of the inventors, and a formylated random hexapeptide (formyl-MSADVG) (SEQ: ID: NO: 16) were either synthesized by Pepscan Presto (Lelystad, The Netherlands) or Inbiolabs (Tallinn, Estonia). The peptides were purified by RP-HPLC and mass spectrometry, and the >95% pure peptides were synthesized three times. […]
RNA extraction was performed in a designated clean RNA area with the addition of 500 μl TRIzol to each sample. […] The RNA concentration was measured using a Nanodrop Spectrophotometer ND-1000 (Bio-Rad (Hercules Calif.)). […]

| Molecule | Estradiol induced expression of CATD (ERα [1]) | Estradiol induced expression of EBAG9 (ERα [1]) | Phosphorylated ERα (serine 118) (Phospho-ERα (Ser 118)) | stimulation time after which ERα mRNA was detected (ERα [2]) [h] |
| --- | --- | --- | --- | --- |
| formyl-MDGCEL (For-MDGCEL; listed as Homo sapiens) [Foxy-5] | consistently lost | consistently lost | detected | 6 |
| B1 | consistently lost | consistently lost | detected | 12 |
